Measurements taken from patent publication US11470828B2, “Rodent model of mood disorders” (REGENERON PHARMACEUTICALS, INC., priority 2019, dated 2022).
Values joined by “and” are separate entries in the source; they are usually repeats but may differ in a detail not shown here. Equal values may be shown once. Read-outs that look alike come from different tables or passages of the source.

System: GPR156^E533D/E533D mice
Settings: for Effect on impaired swim phenotype (ability to perform 6-minute swim test): GPR156^E533D/E533D mice, Fluoxetine 10 mg/kg i.p. daily for 9 weeks
Experimental: Mice were placed in a 5 liter clear plastic beaker (25×18 cm diameter) filled with 4 liters of 23-25° C. tap water to ensure mice cannot touch the bottom of the flask even with their tail. Four animals were recorded simultaneously using an ANY-maze™ video-tracking system (Stoelting Co.). Data were recorded for 6 minutes. Flask were separated by 3 sided white plastic partitions (40 cm high×25 cm wide). Swim test was recorded for 6 minutes. Recordings were set up to start automatically if there was motion in the flask so that recorded times are specific for each individual mouse.
The 6 minutes recording was broken into three time segments (0-100 seconds, 101-200 second and last […]) to get a better sampling of behaviors across time.
Main data points analyzed for the FST were swim time, time mobile, time immobile, speed, distance traveled, rearing in the swim zone, mobile episodes and immobile episodes. Immobility is defined as 60% of total body mass being immobile for 2 seconds. This parameter allows for small movements of hind legs and feet to maintain balance and or to tread water without be considered actively swimming.
Mice were tested for a 6 minute forced swim test weekly before and after daily treatment with intraperitoneal injection of Fluoxetine 10 mg/kg for […]. Total time of swim test seconds) before and after daily treatment with Fluoxetine was recorded. […] Data were expressed as mean±SEM for each animal group.
To test whether Fluoxetine could reverse the impaired swim test phenotype, GPR156^hum/hum and GPR156^E533D/E533D mice were treated with Fluoxetine 10 mg/kg (i.p) daily for 6 days/week for 9 weeks. […] Therefore, mice were subjected to a swim test (baseline) and animals able to perform the 6 minutes swim test were excluded from the study. The remaining mice were then split into 2 groups, treated and untreated with Fluoxetine.
For this study, mice were subjected to a swim test (baseline) and animals able to perform the 6 minutes swim test were excluded from the study.

CNCCC(Oc1ccc(C(F)(F)F)cc1)c1ccccc1 (stereo not drawn) [Fluoxetine]
Percentage of mice achieving the swim test (GPR156^E533D/E533D mice (0/13 at baseline), Fluoxetine 10 mg/kg i.p. daily 6 days/week, after 9 weeks, males and females combined): 53% and 61%
Effect on impaired swim phenotype (ability to perform 6-minute swim test): improves the impaired swim phenotype
Effect on impaired swim phenotype (ability to perform 6-minute swim test) (listed as fluoxetine): improved on their ability to perform the swim test
Percentage of females able to successfully perform the 6 minutes swim test (female mice homozygous for E533D, Fluoxetine 10 mg/kg i.p. daily, after 4 weeks (5 out of 10)): 50%
Percentage of GPR156^E533D/E533D mice that achieved the test (following 4-9 weeks of treatment with Fluoxetine 10 mg/kg, i.p., daily, none able prior to treatment): Fluoxetine (10 mg/kg, i.p., daily), 53%
Percentage of males able to successfully perform the 6 minutes swim test (male mice homozygous for E533D, Fluoxetine 10 mg/kg i.p. daily, after 4 weeks (5 out of 8)): 62.5%
